pIC50: −log10 of the molar value.
Tested on: 519858-162-T-J1-PDC complex spheroid growth, % test/control
Assay: Anticancer human tumor 519858-162-T-J1-PDC patient-derived colon adenocarcinoma cell line growth inhibition [Asc]
Details: for pIC50: curve of first compound; for viability, T/C: stronger effect = lower value
Procedure, shortened: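 Spheroid model: tumor line + HUVEC + hMSC. Single agents and combinations; top conc. at/near clinical Cmax (10 microM if undetermined), half-log dilutions. DMSO stocks at 800-fold test concentration.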
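Further: seven day drug exposure begun three days after spheroid seeding.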
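Wherever viability, T/C is given: 100% = DMSO vehicle wells and lower values mean less viable spheroid.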

CCN1C(C(=O)NC23CCC(C(=O)O)(CC2)CC3)C(c2cccc(Cl)c2F)C2(C(=O)Nc3cc(Cl)ccc32)C12CCCCC2 (centres undefined) + Cc1c(S(C)(=O)=O)c(-c2cc(F)cc(N3CCN(c4ccc(NS(=O)(=O)c5ccc(NC(CCN6CCC(C(=O)OCCCP(=O)(O)O)CC6)CSc6ccccc6)c(S(=O)(=O)C(F)(F)F)c5)cc4)CC3)c2)c(-c2ccc(Cl)cc2)n1C(C)C
pIC50 (second compound 0.0316 µM): < 5.52 | pIC50 (second compound 0.1 µM): < 5.52 | pIC50 (second compound 0.316 µM): < 5.52 | pIC50 (second compound 1 µM): < 5.52 | pIC50 (second compound 3.16 µM): < 5.52 | pIC50 (second compound 10 µM): 6.13 | viability, T/C (second compound 0.0316 µM, first compound 0.00949 µM): 74.8% | viability, T/C (second compound 0.0316 µM, first compound 0.03 µM): 50% | viability, T/C (second compound 0.0316 µM, first compound 0.0949 µM): 76.3% | viability, T/C (second compound 0.0316 µM, first compound 0.3 µM): 79.4% | viability, T/C (second compound 0.0316 µM, first compound 0.949 µM): 61.8% | viability, T/C (second compound 0.0316 µM, first compound 3 µM): 79.5% | viability, T/C (second compound 0.1 µM, first compound 0.00949 µM): 83.2% | viability, T/C (second compound 0.1 µM, first compound 0.03 µM): 104% | viability, T/C (second compound 0.1 µM, first compound 0.0949 µM): 84% | viability, T/C (second compound 0.1 µM, first compound 0.3 µM): 87.6% | viability, T/C (second compound 0.1 µM, first compound 0.949 µM): 55.4% | viability, T/C (second compound 0.1 µM, first compound 3 µM): 71% | viability, T/C (second compound 0.316 µM, first compound 0.00949 µM): 80.8% | viability, T/C (second compound 0.316 µM, first compound 0.03 µM): 95.1% | viability, T/C (second compound 0.316 µM, first compound 0.0949 µM): 84.9% | viability, T/C (second compound 0.316 µM, first compound 0.3 µM): 78% | viability, T/C (second compound 0.316 µM, first compound 0.949 µM): 65.7% | viability, T/C (second compound 0.316 µM, first compound 3 µM): 54.1% | viability, T/C (second compound 1 µM, first compound 0.00949 µM): 67.7% | viability, T/C (second compound 1 µM, first compound 0.03 µM): 69.4% | viability, T/C (second compound 1 µM, first compound 0.0949 µM): 75.5% | viability, T/C (second compound 1 µM, first compound 0.3 µM): 56% | viability, T/C (second compound 1 µM, first compound 0.949 µM): 93.4% | viability, T/C (second compound 1 µM, first compound 3 µM): 49.8% | viability, T/C (second compound 3.16 µM, first compound 0.00949 µM): 57.5% | viability, T/C (second compound 3.16 µM, first compound 0.03 µM): 56.8% | viability, T/C (second compound 3.16 µM, first compound 0.0949 µM): 73.6% | viability, T/C (second compound 3.16 µM, first compound 0.3 µM): 46.8% | viability, T/C (second compound 3.16 µM, first compound 0.949 µM): 49.3% | viability, T/C (second compound 3.16 µM, first compound 3 µM): 60.9% | viability, T/C (second compound 10 µM, first compound 0.00949 µM): 55.2% | viability, T/C (second compound 10 µM, first compound 0.03 µM): 65.4% | viability, T/C (second compound 10 µM, first compound 0.0949 µM): 30.6% | viability, T/C (second compound 10 µM, first compound 0.3 µM): 71.8% | viability, T/C (second compound 10 µM, first compound 0.949 µM): 43.1% | viability, T/C (second compound 10 µM, first compound 3 µM): 36.7%

CNC(C)C(=O)NC1CN(S(=O)(=O)c2cccc(S(=O)(=O)N3CCC4CCC(C(=O)NC(c5ccccc5)c5ccccc5)N4C(=O)C(NC(=O)C(C)NC)C3)c2)CCC2CCC(C(=O)NC(c3ccccc3)c3ccccc3)N2C1=O (centres undefined) + CCN1C(C(=O)NC23CCC(C(=O)O)(CC2)CC3)C(c2cccc(Cl)c2F)C2(C(=O)Nc3cc(Cl)ccc32)C12CCCCC2
pIC50 (second compound 0.00949 µM): > 8.50 | pIC50 (second compound 0.03 µM): < 6.00 | pIC50 (second compound 0.0949 µM): < 6.00 | pIC50 (second compound 0.3 µM): < 6.00 | pIC50 (second compound 0.949 µM): < 6.00 | pIC50 (second compound 3 µM): < 6.00 | viability, T/C (second compound 0.00949 µM, first compound 0.00316 µM): 49.9% | viability, T/C (second compound 0.00949 µM, first compound 0.01 µM): 104% | viability, T/C (second compound 0.00949 µM, first compound 0.0316 µM): 91.5% | viability, T/C (second compound 0.00949 µM, first compound 0.1 µM): 64.4% | viability, T/C (second compound 0.00949 µM, first compound 0.316 µM): 98.7% | viability, T/C (second compound 0.00949 µM, first compound 1 µM): 74.6% | viability, T/C (second compound 0.03 µM, first compound 0.00316 µM): 112% | viability, T/C (second compound 0.03 µM, first compound 0.01 µM): 89.9% | viability, T/C (second compound 0.03 µM, first compound 0.0316 µM): 88.3% | viability, T/C (second compound 0.03 µM, first compound 0.1 µM): 79% | viability, T/C (second compound 0.03 µM, first compound 0.316 µM): 54.9% | viability, T/C (second compound 0.03 µM, first compound 1 µM): 99% | viability, T/C (second compound 0.0949 µM, first compound 0.00316 µM): 89.1% | viability, T/C (second compound 0.0949 µM, first compound 0.01 µM): 73.9% | viability, T/C (second compound 0.0949 µM, first compound 0.0316 µM): 85.1% | viability, T/C (second compound 0.0949 µM, first compound 0.1 µM): 75.4% | viability, T/C (second compound 0.0949 µM, first compound 0.316 µM): 60.4% | viability, T/C (second compound 0.0949 µM, first compound 1 µM): 96.4% | viability, T/C (second compound 0.3 µM, first compound 0.00316 µM): 94.6% | viability, T/C (second compound 0.3 µM, first compound 0.01 µM): 75.3% | viability, T/C (second compound 0.3 µM, first compound 0.0316 µM): 81.2% | viability, T/C (second compound 0.3 µM, first compound 0.1 µM): 68.2% | viability, T/C (second compound 0.3 µM, first compound 0.316 µM): 74.4% | viability, T/C (second compound 0.3 µM, first compound 1 µM): 58.2% | viability, T/C (second compound 0.949 µM, first compound 0.00316 µM): 94.3% | viability, T/C (second compound 0.949 µM, first compound 0.01 µM): 87.4% | viability, T/C (second compound 0.949 µM, first compound 0.0316 µM): 85.7% | viability, T/C (second compound 0.949 µM, first compound 0.1 µM): 70.5% | viability, T/C (second compound 0.949 µM, first compound 0.316 µM): 68.2% | viability, T/C (second compound 0.949 µM, first compound 1 µM): 66% | viability, T/C (second compound 3 µM, first compound 0.00316 µM): 62% | viability, T/C (second compound 3 µM, first compound 0.01 µM): 76.1% | viability, T/C (second compound 3 µM, first compound 0.0316 µM): 72.4% | viability, T/C (second compound 3 µM, first compound 0.1 µM): 93.9% | viability, T/C (second compound 3 µM, first compound 0.316 µM): 73.2% | viability, T/C (second compound 3 µM, first compound 1 µM): 74%
